# Results from article PMC5355295, “A new semisynthetic cardenolide analog 3β-[2-(1-amantadine)- 1-on-ethylamine]-digitoxigenin (AMANTADIG) affects G2/M cell cycle arrest and miRNA expression profiles and enhances proapoptotic survivin-2B expression in renal cell carcinoma cell lines” (Oncotarget, 2017).
# pIC50: −log10 of the molar value.
# Molecular target: T1, Na+/K+-ATPase α1,2,3 subunit
# T1 construct: gene ATP1A1; Na+/K+-ATPase α1,2,3 subunit of porcine cortex (Sigma)
# Test: ATPase activity, malachite green Pi release, […] min pre-incubation
# Assay type: biochemical, Sus scrofa
smiles,measurement,value
CO[C@H]1[C@@H](O)C[C@H](O[C@H]2[C@@H](O)C[C@H](O[C@H]3[C@@H](O)C[C@H](O[C@H]4CC[C@@]5(C)[C@H](CC[C@@H]6[C@@H]5C[C@@H](O)[C@]5(C)[C@@H](C7=CC(=O)OC7)CC[C@]65O)C4)O[C@@H]3C)O[C@@H]2C)O[C@@H]1C [β-methyldigoxin],pIC50,4.78
